Laboratory results: ChEMBL document CHEMBL1909046, “DrugMatrix in vitro pharmacology data”

Legend:
Cytochrome P450 2C19 = Cytochrome P450 2C19 (Homo sapiens, UniProt P33261); details: bti-tn-5b1-4; further: in other assays of this panel Not Active means under 50% inhibition at 10 µM
Progesterone receptor = target: T1, Progesterone receptor (Bos taurus, UniProt Q690N0); assay: DRUGMATRIX: Progesterone radioligand binding (ligand: [3H] R-5020); format: tissue-based, Uterus; details: Not Active = under 50% inhibition at 10 µM
T1 sequence (Q690N0 whole entry): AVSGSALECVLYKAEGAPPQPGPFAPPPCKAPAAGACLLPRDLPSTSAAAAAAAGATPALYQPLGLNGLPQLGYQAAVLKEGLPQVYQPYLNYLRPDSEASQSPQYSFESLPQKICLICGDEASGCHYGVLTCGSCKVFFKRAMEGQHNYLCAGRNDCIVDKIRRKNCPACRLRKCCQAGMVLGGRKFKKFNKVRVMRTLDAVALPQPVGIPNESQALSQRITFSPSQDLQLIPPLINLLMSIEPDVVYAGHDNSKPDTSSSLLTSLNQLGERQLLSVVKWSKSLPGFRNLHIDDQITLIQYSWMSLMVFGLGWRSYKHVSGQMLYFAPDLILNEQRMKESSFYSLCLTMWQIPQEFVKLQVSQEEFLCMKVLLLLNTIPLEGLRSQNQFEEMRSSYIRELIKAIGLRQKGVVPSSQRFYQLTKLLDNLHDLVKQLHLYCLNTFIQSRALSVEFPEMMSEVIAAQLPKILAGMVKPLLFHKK

Melanocortin receptor 5 = Melanocortin receptor 5 (Homo sapiens, UniProt P33032); format: cell membranes, HEK293, Membrane; details: hek293; further: in other assays of this panel Not Active means under 50% inhibition at 10 µM
Chain of Melanocortin receptor 5 (P33032 whole entry): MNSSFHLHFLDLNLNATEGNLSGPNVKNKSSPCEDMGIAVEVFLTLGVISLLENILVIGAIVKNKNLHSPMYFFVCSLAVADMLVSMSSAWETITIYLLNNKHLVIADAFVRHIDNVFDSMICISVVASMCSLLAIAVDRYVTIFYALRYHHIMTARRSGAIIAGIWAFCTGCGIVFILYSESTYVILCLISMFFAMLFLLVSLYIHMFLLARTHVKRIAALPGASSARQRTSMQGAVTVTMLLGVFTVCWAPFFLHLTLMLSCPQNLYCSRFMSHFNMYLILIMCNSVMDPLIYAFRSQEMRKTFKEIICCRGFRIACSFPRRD

[1] = DRUGMATRIX: Sigma2 radioligand binding (ligand: [3H] Ifenprodil); format: cell membranes, Rattus norvegicus, Wistar, Brain, Membrane; details: Not Active = under 50% inhibition at 10 µM
[2] = target: Beta-3 adrenergic receptor (Homo sapiens, UniProt P13945); assay: DRUGMATRIX: Adrenergic beta3 radioligand binding (ligand: [125I] Cyanopindolol); format: cell membranes, HEK293, Membrane; details: Not Active = under 50% inhibition at 10 µM
Chain of Beta-3 adrenergic receptor (P13945 whole entry): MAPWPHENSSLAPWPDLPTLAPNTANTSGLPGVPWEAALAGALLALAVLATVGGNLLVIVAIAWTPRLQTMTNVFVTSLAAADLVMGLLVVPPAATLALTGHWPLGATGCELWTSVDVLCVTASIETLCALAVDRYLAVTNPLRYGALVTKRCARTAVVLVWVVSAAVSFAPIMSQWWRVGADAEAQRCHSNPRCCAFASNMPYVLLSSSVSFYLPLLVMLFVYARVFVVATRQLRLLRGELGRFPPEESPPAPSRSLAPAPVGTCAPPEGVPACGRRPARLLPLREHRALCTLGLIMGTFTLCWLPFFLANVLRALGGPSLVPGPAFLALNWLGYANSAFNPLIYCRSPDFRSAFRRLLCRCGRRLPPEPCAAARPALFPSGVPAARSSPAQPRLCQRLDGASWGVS

[3] = target: Beta-1 adrenergic receptor (Homo sapiens, UniProt P08588); assay: DRUGMATRIX: Adrenergic beta1 radioligand binding (ligand: [125I] Cyanopindolol); format: cell membranes, CHO-K1, Membrane; details: cho-k1; Not Active = under 50% inhibition at 10 µM
Chain of Beta-1 adrenergic receptor (P08588 whole entry): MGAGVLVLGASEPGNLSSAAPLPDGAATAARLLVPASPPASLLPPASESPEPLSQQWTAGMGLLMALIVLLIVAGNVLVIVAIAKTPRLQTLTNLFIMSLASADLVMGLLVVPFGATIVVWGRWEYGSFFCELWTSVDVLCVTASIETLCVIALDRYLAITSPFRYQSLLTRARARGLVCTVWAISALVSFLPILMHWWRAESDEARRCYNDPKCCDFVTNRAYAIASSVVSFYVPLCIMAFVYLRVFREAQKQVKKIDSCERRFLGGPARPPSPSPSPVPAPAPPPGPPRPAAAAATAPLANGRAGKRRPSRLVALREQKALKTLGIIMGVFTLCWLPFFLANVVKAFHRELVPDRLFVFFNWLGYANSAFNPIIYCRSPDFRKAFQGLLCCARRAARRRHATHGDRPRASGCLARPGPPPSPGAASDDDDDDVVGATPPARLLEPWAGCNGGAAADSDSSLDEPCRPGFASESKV

Chain of Cytochrome P450 2C19 (P33261 whole entry): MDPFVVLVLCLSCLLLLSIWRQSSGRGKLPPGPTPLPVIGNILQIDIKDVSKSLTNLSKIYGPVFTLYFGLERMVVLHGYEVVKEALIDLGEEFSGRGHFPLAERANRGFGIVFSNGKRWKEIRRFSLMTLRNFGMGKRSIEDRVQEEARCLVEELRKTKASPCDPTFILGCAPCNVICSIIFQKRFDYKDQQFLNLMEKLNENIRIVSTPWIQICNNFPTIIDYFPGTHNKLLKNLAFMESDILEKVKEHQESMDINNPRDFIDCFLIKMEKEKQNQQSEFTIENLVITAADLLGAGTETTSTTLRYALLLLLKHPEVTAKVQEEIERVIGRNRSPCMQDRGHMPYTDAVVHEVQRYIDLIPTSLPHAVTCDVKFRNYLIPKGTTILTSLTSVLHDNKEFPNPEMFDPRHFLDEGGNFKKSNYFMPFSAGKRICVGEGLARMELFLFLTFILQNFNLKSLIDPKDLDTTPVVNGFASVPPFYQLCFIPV

| Compound | IC50 (Cytochrome P450 2C19) | Ki (Cytochrome P450 2C19) | IC50 (Progesterone receptor) | IC50 (Melanocortin receptor 5) | IC50 [1] | Ki [1] | IC50 ([2]; hek293) | IC50 [3] | IC50 (Progesterone receptor; read-out: IC50) [µM] | Ki (Progesterone receptor; read-out: Ki) [µM] | IC50 ([2]; read-out: IC50) [µM] | Ki ([2]; read-out: Ki) [µM] |
| --- | --- | --- | --- | --- | --- | --- | --- | --- | --- | --- | --- | --- |
| OC[C@H]1O[C@@H]2O[C@H]3[C@H](O)[C@@H](O)[C@@H](O[C@H]4[C@H](O)[C@@H](O)[C@@H](O[C@H]5[C@H](O)[C@@H](O)[C@@H](O[C@H]6[C@H](O)[C@@H](O)[C@@H](O[C@H]7[C@H](O)[C@@H](O)[C@@H](O[C@H]1[C@H](O)[C@H]2O)O[C@@H]7CO)O[C@@H]6CO)O[C@@H]5CO)O[C@@H]4CO)O[C@@H]3CO [ALFADEX] | Not Active | Not Active | Not Active | Not Active | Not Active | Not Active | Not Active | Not Active |  |  |  |  |
| COC(=O)C[C@](O)(CCC(C)(C)O)C(=O)O[C@@H]1C(OC)=C[C@]23CCCN2CCc2cc4c(cc2[C@H]13)OCO4 [HARRINGTONINE] | Not Active | Not Active | Not Active | Not Active | Not Active | Not Active | Not Active | Not Active |  |  |  |  |
| O=C1CN(/N=C/c2ccc([N+](=O)[O-])o2)C(=O)N1 [NITROFURANTOIN] | Not Active | Not Active | Not Active | Not Active | Not Active | Not Active | Not Active | Not Active |  |  |  |  |
| C[N+](C)(C)CCOC(N)=O.[Cl-] [CARBACHOL] | Not Active | Not Active | Not Active | Not Active | Not Active | Not Active | Not Active | Not Active |  |  |  |  |
| O=C(NCCN1CCOCC1)c1ccc(Cl)cc1 [MOCLOBEMIDE] | Not Active | Not Active | Not Active | Not Active | Not Active | Not Active | Not Active | Not Active |  |  |  |  |
| CC12CCC(CC1)C(C)(C)O2 [EUCALYPTOL] | Not Active | Not Active | Not Active | Not Active | Not Active | Not Active | Not Active | Not Active |  |  |  |  |
| CC(N)Cc1c[nH]c2ccc(OCc3cccs3)cc12 (stereo not given) [BW-723C86] | Not Active | Not Active | Not Active | Not Active | Not Active | Not Active | Not Active | Not Active |  |  |  |  |
| CCN1C[C@]2(COC)[C@H](O)C[C@H](OC)[C@@]34[C@@H]5C[C@@]6(O)[C@H](OC(=O)c7ccccc7)[C@@H]5[C@@](OC(C)=O)([C@@H]([C@H](OC)[C@H]23)[C@@H]14)[C@@H](O)[C@@H]6OC [ACONITINE] | Not Active | Not Active | Not Active | Not Active | Not Active | Not Active | Not Active | Not Active |  |  |  |  |
| OC[C@H]1OC2C3[C@@H](CO)OC(O[C@H]4[C@H](O)[C@@H](O)[C@@H](O[C@H]5[C@H](O)[C@@H](O)[C@@H](O[C@H]6[C@H](O)[C@@H](O)[C@@H](O[C@H]7[C@H](O)[C@@H](O)[C@@H](O[C@H]8[C@H](O)[C@@H](O)[C@@H](O[C@H]9[C@H](O)[C@@H](O)C(OC1[C@H](O)[C@H]2O)O[C@@H]9CO)O[C@@H]8CO)O[C@@H]7CO)O[C@@H]6CO)O[C@@H]5CO)O[C@@H]4CO)[C@H](O)[C@H]3O | Not Active | Not Active | Not Active | Not Active | Not Active | Not Active | Not Active | Not Active |  |  |  |  |
| CN(CCOc1ccc(C[C@H](Nc2ccccc2C(=O)c2ccccc2)C(=O)O)cc1)c1ccccn1 | Not Active | Not Active |  | Not Active | Not Active | Not Active |  | Not Active | 30.6 | 3.99 | 22.1 | 16.6 |
| CCN1CCN(c2cc3c(cc2F)c(=O)c(C(=O)O)cn3C2CC2)CC1 [ENROFLOXACIN] | Not Active | Not Active | Not Active | Not Active | Not Active | Not Active | Not Active | Not Active |  |  |  |  |
